How the values were obtained:
[1] = test system: PQ-induced writhing in mice; assay: animal or person; type: in vivo, mouse (male CF1); details: Mus musculus, sc, read-out: ED50, antagonism of PQ-induced writhing in mice
[2] = biological target: T1, mu opioid receptor (morphine analgesia) (Mus musculus, UniProt P42866); assay: antagonism of morphine analgesia in PQW test (mu antagonist potency); type: in vivo, mouse (male CF1); details: sc, read-out: ED50, antagonism of morphine analgesia in PQW test (mu antagonist potency)
T1 construct: Male CF1 mice (fasted 17-21 hours); from tissue; host or cells: live male CF1 mice (in vivo, whole animal; endogenous receptor)

[3] = biological target: T2, kappa opioid receptor (U-50,488H analgesia) (Mus musculus, UniProt P33534); assay: in vivo; parameters: species or system mouse (male CF1); details: sc, read-out: ED50, antagonism of U-50,488H analgesia in PQW test (kappa antagonist potency)
T2 construct: Male CF1 mice (fasted 17-21 hours); from tissue; host or cells: live male CF1 mice (in vivo, whole animal; endogenous receptor)

[4] = test system: animal models of hemorrhagic, septic, and neurogenic shock; details: in vivo; cited from earlier work
spinal cord injury = details: rabbit, versus WIN 44,441-3; cited from earlier work
food intake = details: in vivo; cited from earlier work
[5] = test system: μ (mu), κ (kappa) and δ (delta) opioid receptors; details: established opioid antagonists; cited from earlier work
kappa receptor = details: cited from earlier work
feeding = details: in vivo; cited from earlier work

T2 sequence (P33534 whole entry): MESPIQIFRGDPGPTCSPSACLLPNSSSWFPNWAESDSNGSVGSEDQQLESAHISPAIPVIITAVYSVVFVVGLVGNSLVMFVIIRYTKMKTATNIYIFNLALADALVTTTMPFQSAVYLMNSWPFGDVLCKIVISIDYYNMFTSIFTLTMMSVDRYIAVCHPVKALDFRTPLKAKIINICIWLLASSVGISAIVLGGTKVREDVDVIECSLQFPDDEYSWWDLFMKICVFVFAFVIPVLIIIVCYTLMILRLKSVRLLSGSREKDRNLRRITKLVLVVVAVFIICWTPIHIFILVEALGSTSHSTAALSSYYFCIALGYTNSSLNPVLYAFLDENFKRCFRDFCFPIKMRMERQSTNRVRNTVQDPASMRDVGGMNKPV
T1 sequence (P42866 whole entry): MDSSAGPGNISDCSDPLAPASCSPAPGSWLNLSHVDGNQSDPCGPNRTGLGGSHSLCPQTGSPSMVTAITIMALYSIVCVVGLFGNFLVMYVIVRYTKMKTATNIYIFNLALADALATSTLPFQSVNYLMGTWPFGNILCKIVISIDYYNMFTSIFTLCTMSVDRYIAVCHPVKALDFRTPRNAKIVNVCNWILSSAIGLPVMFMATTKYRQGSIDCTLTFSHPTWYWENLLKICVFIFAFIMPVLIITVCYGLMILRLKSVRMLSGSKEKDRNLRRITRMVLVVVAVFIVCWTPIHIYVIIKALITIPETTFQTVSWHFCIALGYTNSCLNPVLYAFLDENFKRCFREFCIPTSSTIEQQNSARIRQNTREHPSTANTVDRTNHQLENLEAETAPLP

Compound | ED50 [1] [mg/kg] | ED50 [2] [mg/kg] | ED50 [3] [mg/kg] | other results
CCCN1CCC23c4cccc(O)c4OC2C2CCC3(C1)C(COC)C2 (stereo not drawn) [Example 1, 5-Methoxymethyl-3-n-propyl-1,2,3,4,5,6,7,7a-octahydro-4a,7-ethanobenzofuro[3,2-e]isoquinolin-9-ol] | > 81 | 0.014 | 0.004 | 
CCCN1CCC23c4cccc(O)c4OC2C2CCC3(C1)C(COCC)C2 (stereo not drawn) [Example 2, 5-Ethoxymethyl-3-n-propyl-1,2,3,4,5,6,7,7a-octahydro-4a,7-ethanobenzofuro[3,2-e]isoquinolin-9-ol] | > 81 | 0.024 | 0.012 | 
CCCOCC1CC2CCC13CN(CCC)CCC31c3cccc(O)c3OC21 (stereo not drawn) [Example 3, 5-(n-Propoxymethyl)-3-n-propyl-1,2,3,4,5,6,7,7a-octahydro-4a,7-ethanobenzofuro[3,2-e]isoquinolin-9-ol] | > 81 | 0.06 | 0.025 | 
CCCOCC1CC2C=CC13CN(CCC)CCC31c3cccc(O)c3OC21 (stereo not drawn) [Example 4, 5-(n-propoxymethyl)-3-n-propyl-1,2,3,4,5,6,7,7a-octahydro-4a,7-ethenobenzofuro[3,2-e]isoquinolin-9-ol] | > 81 | 0.19 | 0.05 | 
CCCN1CCC23c4cccc(O)c4OC2C2CCC3(C1)C(CSC)C2 (stereo not drawn) [Example 5, 5-methylthiomethyl-3-n-propyl-1,2,3,4,5,6,7,7a-octahydro-4a,7-ethanobenzofuro[3,2-e]isoquinolin-9-ol] | > 81 | 0.1 | 0.063 | 
COCC1CC2CCC13CN(CC1CC1)CCC31c3cccc(O)c3OC21 (stereo not drawn) [Example 6, 3-Cyclopropylmethyl-5-methoxymethyl-1,2,3,4,5,6,7,7a-octahydro-4a,7-ethanobenzofuro[3,2-e]isoquinolin-9-ol] | > 81 | 0.008 | 0.007 | 
Oc1cccc2c1OC1C3CCC4(CN(CC5CC5)CCC214)C(COCCCc1ccccc1)C3 (stereo not drawn) [Example 7, 3-cyclopropylmethyl-5-(3-phenyl-n-propoxymethyl)-1,2,3,4,5,6,7,7a-octahydro-4a,7-ethanolbenzofuro[3,2-e]isoquinolin-9-ol] | > 81 | 0.29 | 0.24 | 
CCC1C2Cc3ccc(O)cc3C1(CC)CCN2Cc1ccoc1 (stereo not drawn) [MR 2266, reference compound] | > 81 | 0.109 | 0.115 | 
C=CCN1CC[C@]23c4c5ccc(O)c4O[C@H]2C(=O)CC[C@@]3(O)[C@H]1C5 [Naloxone, naloxone] | > 81 |  |  | effective doses in shock models versus mu mediated effects [4]: several orders of magnitude higher than doses useful in reversing mu mediated effects; improvement of hemodynamic parameters in shock models [4]: improve hemodynamic parameters in a variety of animal models of hemorrhagic, septic, and neurogenic shock; effectiveness in spinal stroke model (spinal cord injury): less effective than WIN 44,441-3; decrease of food intake (food intake): decrease food intake in several animal species; effective doses for food intake versus mu mediated effects (food intake): much larger than those useful in reversing mu mediated effects
O=C1CC[C@@]2(O)[C@H]3Cc4ccc(O)c5c4[C@@]2(CCN3CC2CC2)[C@H]1O5 [Naltrexone, naltrexone] | > 81 |  |  | opioid receptor binding in words [5]: bind to all three types of receptors, with greatest affinity for the mu receptor; decrease of food intake (food intake): decrease food intake in several animal species; effective doses for food intake versus mu mediated effects (food intake): much larger than those useful in reversing mu mediated effects
CN1CC[C@]2(C)c3cc(O)ccc3C[C@H]1C2(C)CCC(=O)CCC1CCCC1.CS(=O)(=O)O (stereo partly drawn) [WIN 44,441-3] |  |  |  | kappa receptor activity/selectivity in words (kappa receptor): enhanced activity at the kappa receptor
CC[C@]12CCN(CC3CC3)[C@H](C(=O)c3ccc(O)cc31)[C@@H]2C [ethylketocyclazocine] |  |  |  | stimulation of feeding (feeding): more potent stimulators of feeding than the mu agonist morphine

Source: patent US4767764A, “Alkoxyalkyl and alkylmercaptoalkyl substituted bridged benzofuroisoquinolines having opioid antagonist and/or appetite-controlling properties” (E. I. Du Pont de Nemours and Company, priority 1986, dated 1988)
